Read-outs that look alike come from different tables or passages of the source.
What was measured:
[1] = tested on: Escherichia coli JM109; conditions: aerobic, LB, 37° C., OD610
Experimental: (§1) A growth inhibition test in aerobic culture was performed to examine the influence of phenol on Corynebacterium glutamicum, Escherichia coli, and Pseudomonas putida. Pseudomonas putida S12, which was used for the test, is reported to be a solvent-resistant strain. In the report, disclosed is an unparalleled technology using the strain as a host in phenol production.
Escherichia coli JM109 was applied to LB agar medium (1% polypeptone, 0.5% yeast extract, 0.5% NaCl and 1.5% agar) and was left stand in the dark at 37° C. for 15 hours.
An inoculation loop of the Escherichia coli JM109 grown on a plate as above was inoculated into a test tube containing 10 mL of LB liquid medium (1% polypeptone, 0.5% yeast extract, and 0.5% NaCl), and aerobic culture was performed with shaking at 37° C. for 13 hours.
(§2) The Escherichia coli JM109 grown in the above conditions was inoculated into 100 mL of LB liquid medium in such a way that the initial bacterial cell concentration would be OD610=0.05, phenol was added at the same time in such a way that the final concentration would be 0, 0.16, or 0.20 mM, and aerobic culture was performed with shaking at 37° C. The growth of bacterial cells was determined by absorbance measurement at OD610.

[2] = tested on: Corynebacterium glutamicum R; conditions: aerobic, A liquid medium, 33° C., OD610
Experimental: as §1
Corynebacterium glutamicum R was applied to A agar medium (2 g of […], 7 g of (NH4)2SO4, 0.5 g of KH2PO4, 0.5 g of K2HPO4, 0.5 g of MgSO4.7H2O, 1 mL of 0.06% (w/v) Fe2SO4.7H2O+0.042% (w/v) MnSO4.2H2O, 1 mL of 0.02% (w/v) biotin solution, 2 mL of 0.01% (w/v) thiamin solution, 2 g of yeast extract, 7 g of vitamin assay casamino acid, 40 g of glucose, and 15 g of agar were suspended in 1 L of distilled water) and was left stand in the dark at 33° C. for 15 hours.
An inoculation loop of the Corynebacterium glutamicum R grown on a plate as above was inoculated into a test tube containing 10 mL of A liquid medium (2 g of (NH2)2CO, 7 g of (NH4)2SO4, 0.5 g of KH2PO4, 0.5 g of K2HPO4, 0.5 g of MgSO4.7H2O, 1 mL of 0.06% (w/v) Fe2SO4.7H2O+0.042% (w/v) MnSO4.2H2O, 1 mL of 0.02% (w/v) biotin solution, 2 mL of 0.01% (w/v) thiamin solution, 2 g of yeast extract, 7 g of vitamin assay casamino acid, and 40 g of glucose were suspended in 1 L of distilled water) and was aerobically cultured with shaking at 33° C. for 13 hours.
as §2, with “Corynebacterium glutamicum R” for “Escherichia coli JM109”, “A” for “LB”, “0.16, 0.2, 0.24,” for “0.16,”, “0.32” for “0.20”, “33°” for “37°”

[3] = tested on: Corynebacterium glutamicum R; conditions: reducing conditions (ORP −450 mV), 8% glucose, 33° C.
[4] = tested on: Pseudomonas putida F1; conditions: aerobic, LB (+glucose), 30° C., OD610
Experimental: as §1
(§3) Pseudomonas putida F1 and S12 were applied to LB agar medium (1% polypeptone, 0.5% yeast extract, 0.5% NaCl and 1.5% agar) and were left stand in the dark at 30° C. for 15 hours.
(§4) An inoculation loop of each of the Pseudomonas putida F1 and S12 grown on a plate as above was inoculated into a test tube containing 10 mL of LB (+glucose) liquid medium (1% polypeptone, 0.5% yeast extract, 0.5% NaCl and 0.4% glucose), and aerobic culture was performed with shaking at 30° C. for 13 hours.
as §2, with “The Pseudomonas putida F1 and S12” for “The Escherichia coli JM109”, “conditions were each” for “conditions was”, “LB (+glucose)” for “LB”, “0, 0.10,” for “0, 0.16,”, “at 30°” for “at 37°”

[5] = tested on: Pseudomonas putida S12; conditions: aerobic, LB (+glucose), 30° C., OD610
Experimental: as §1, §3, §4
as §2, with “The Pseudomonas putida F1 and S12” for “The Escherichia coli JM109”, “conditions were each” for “conditions was”, “LB (+glucose)” for “LB”, “0, 0.10,” for “0, 0.16,”, “at 30°” for “at 37°”

## Oc1ccccc1 [phenol]
[1]; 0.16% phenol
  proliferation of Escherichia coli: significantly affected
[1]; 0.20% phenol
  proliferation of Escherichia coli: completely inhibited
[2]; 0.16% phenol
  proliferation of Corynebacterium glutamicum: hardly affected
[2]; 0.20% phenol
  proliferation of Corynebacterium glutamicum: favorable growth
[2]; 0.24% phenol
  proliferation of Corynebacterium glutamicum: able to proliferate
[3]; 0.24% phenol
  saccharide consumption by Corynebacterium glutamicum R: no influence of phenol was observed
[3]; 0.38% phenol
  saccharide consumption by Corynebacterium glutamicum R: saccharide consumption was observed
[3]; 0.46% phenol
  saccharide consumption by Corynebacterium glutamicum R: slightly observed
[4]; 0.10% phenol
  proliferation of Pseudomonas putida F1: significantly affected
[4]; 0.20% phenol
  proliferation of Pseudomonas putida F1: completely inhibited
[5]; 0.10% phenol
  proliferation of Pseudomonas putida S12: significantly affected
[5]; 0.20% phenol
  proliferation of Pseudomonas putida S12: completely inhibited

— patent US9404115B2, “Coryneform bacterium transformant and process for producing phenol using the same” (priority 2010, dated 2016)
